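Each compound was tested at five concentrations against cells in 96-well plates for 48 hours. GI50 is the concentration that inhibits growth by half.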 Calls of active or inactive are those of the source. Rule as the data show it: active = GI50 up to about 1.1 µM and inactive = higher.
How the values were obtained:
Assay in all cases: NCI-60 cell line screen, 48 h
[1] = system: RXF 631
[2] = system: KM-20L2
[3] = system: LXFL 529
[4] = system: DLD-1
[5] = system: DMS-273
[6] = system: XF498
[7] = system: M19-MEL
[8] = system: DMS-114
[9] = system: HOP-18

Measured: GI50

O=C1C2=C(c3ccccc31)C(c1ccc([N+](=O)[O-])cc1)NC(S)=N2 (centres undefined)
inactive: [1] > 100 µM | [2] > 100 µM | [3] 41 µM | [4] 69 µM | [5] 59.4 µM | [6] 31.5 µM | [7] 78.9 µM | [8] 36.8 µM

Nc1ccc2c(c1)C(=O)N(OS(=O)(=O)c1ccccc1)C2=O
inactive: [9] > 100 µM | [1] > 100 µM | [2] > 100 µM | [3] 82 µM | [4] 52.4 µM | [5] > 100 µM | [6] > 100 µM | [7] > 100 µM | [8] > 100 µM

Nc1ccc(O)c2c1C(=O)c1c(N)ccc(O)c1C2=O
inactive: [3] > 100 µM | [4] > 100 µM | [5] > 100 µM | [6] > 100 µM | [7] > 100 µM | [8] > 100 µM

COc1cc(O)c2c(c1O)C(=O)c1cc(C)ncc1C2=O
inactive: [9] > 50 µM | [2] 17.2 µM | [3] 18.6 µM | [4] 16 µM | [6] 20.6 µM | [7] 7.91 µM | [8] 18.9 µM

CC(C)C1CNC2N1C(=O)C2(C)OCc1ccccc1 (centres undefined)
inactive: [2] > 100 µM | [3] > 100 µM | [4] > 100 µM | [5] > 100 µM | [7] > 100 µM | [8] > 100 µM

O=C1c2c(nc3ccccc3c2-c2ccccc2)CN1Nc1ccccn1
inactive: [1] 15.8 µM | [3] 51.9 µM | [4] > 100 µM | [5] > 89.9 µM | [6] > 100 µM | [7] > 100 µM | [8] 27.5 µM

CC1CC(=O)C(CC(=O)O)[C@H]1C(C(=O)C(=O)Nc1cc(Cl)ccc1Cl)[N+](=O)[O-] (some centres undefined)
inactive: [9] > 100 µM | [2] > 100 µM | [4] > 100 µM | [6] > 100 µM | [7] > 100 µM | [8] > 100 µM

O=C(/C=C/c1c(O)ccc2ccccc12)c1cccc(O)c1
inactive: [9] 23 µM | [2] > 100 µM | [3] > 83.6 µM | [4] > 100 µM | [5] > 63.5 µM | [6] > 100 µM | [7] 17.5 µM | [8] 41.3 µM

COc1ccc2nc(-c3cccs3)cc(C(O)CN3CCSCC3)c2c1 (centres undefined)
inactive: [9] 19.8 µM | [2] 21.6 µM | [3] 12.6 µM | [4] 23.6 µM | [5] 19.5 µM | [6] 16.3 µM | [7] 22.8 µM | [8] 12.2 µM

Cc1cc(Cl)ccc1NC1=NC(=O)C(CC(=O)Nc2ccc(Cl)cc2Cl)S1 (centres undefined)
inactive: [1] > 100 µM | [2] > 100 µM | [3] > 100 µM | [4] > 100 µM | [5] > 100 µM | [6] 38.1 µM | [7] > 100 µM | [8] > 100 µM

C/C=C/C=C/C=C/C=C/C(=O)O
inactive: [9] > 100 µM | [1] > 100 µM | [2] > 100 µM | [3] > 100 µM | [4] > 100 µM | [5] > 100 µM | [8] > 100 µM

O=[N+]([O-])c1cc(-c2nnc(S)[nH]2)ccc1O
inactive: [1] > 100 µM | [2] > 100 µM | [3] > 100 µM | [4] > 100 µM | [5] 67.6 µM | [7] 86.3 µM | [8] 32.4 µM

Cc1ccc(NC(=O)CC/C(CC(=O)c2ccc(F)cc2)=N\NC(=O)C(=O)NN)cc1C
inactive: [9] > 100 µM | [1] > 100 µM | [2] > 100 µM | [3] > 100 µM | [4] > 100 µM | [5] > 100 µM | [7] > 100 µM | [8] > 100 µM

COc1cc(NCC(C#N)C#N)ccc1/N=N/c1ccc(Cl)cc1
inactive: [9] 21 µM | [1] 26.3 µM | [2] 15.2 µM | [3] 18.3 µM | [4] 29.4 µM | [5] 21.5 µM | [7] 19.3 µM | [8] 18.5 µM

O=C(O)C1OC(Oc2cc(O)c3c(=O)cc(-c4ccc(O)cc4)oc3c2)C(O)C(O)C1O (centres undefined)
inactive: [2] > 100 µM | [3] > 100 µM | [4] > 100 µM | [5] > 100 µM | [6] 33.6 µM | [7] > 100 µM | [8] > 100 µM

O=C1C2=C(c3ccccc31)C(c1ccccc1)NC(S)=N2 (centres undefined)
inactive: [1] 43.2 µM | [2] 42 µM | [3] 26.2 µM | [4] 52.6 µM | [5] 26.9 µM | [6] 56 µM | [7] 67.9 µM | [8] 30.7 µM

COC(=O)C1CC(C(=O)OC)c2nc3cc(C)c(C)cc3nc21 (centres undefined)
inactive: [9] 41.7 µM | [1] > 100 µM | [2] > 100 µM | [3] > 100 µM | [4] > 100 µM | [5] > 100 µM | [6] > 100 µM | [7] > 100 µM | [8] > 100 µM

C[N+](C)(C)CC1CCCC/C1=N\O (centres undefined)
inactive: [9] > 100 µM | [1] > 100 µM | [2] > 100 µM | [3] > 100 µM | [4] > 100 µM | [5] > 100 µM | [8] > 100 µM

CN(C)CCCNc1ccnc2cccc([N+](=O)[O-])c12
inactive: [2] 11.5 µM

O=c1cc(-c2ccccc2)[nH]c2cc(Cl)cc(Cl)c12
inactive: [9] 20.8 µM | [3] 67.8 µM | [4] > 100 µM | [5] 12.3 µM | [7] 35.5 µM | [8] 26.4 µM

COC(=O)C1=CCON(c2ccccc2)C1c1ccccc1 (centres undefined)
inactive: [9] > 100 µM | [2] 69.8 µM | [3] 34.7 µM | [4] 39.1 µM | [5] 56.5 µM | [6] 52 µM | [7] 62.8 µM | [8] 48.3 µM

CN(C)CC(/C(Cc1ccccc1)=N\NC(=S)NN)c1ccccc1 (centres undefined)
inactive: [2] > 100 µM | [3] > 100 µM | [4] > 100 µM | [5] > 100 µM | [6] > 100 µM | [7] > 100 µM | [8] > 100 µM

O=CC[C@H]1C(=O)C[C@@H]2CCC[C@@H]21
inactive: [3] 48 µM | [6] > 100 µM | [7] 56.2 µM

From ChEMBL document CHEMBL1201862, “PubChem BioAssay data set” (2004)
